Test [1] has as its system AsPC-1 cells containing homozygous KRAS-G12D activating mutation (p-ERK). The conditions noted are these: Homo sapiens, ASPC1, 2 h, read-out: KRAS G12D ASPC-1 IC50 (nM).
Protocol: Procedure for Cellular Phospho-ERK Assay, G12D
AsPC-1 cells (ATCC® CRL-1682™), containing homozygous KRAS-G12D activating mutation, were cultured in T150 flask in growth medium (RPMI medium 1640-GlutaMAX™—I (ThermoFisher Scientific 61870) containing 10% fetal bovine serum (ThermoFisher Scientific 10091148)). The cells were harvested in growth medium after TrypLE (ThermoFisher scientific 12604021) digestion and were seeded in a 384-well collagen coated cell culture plate (Corning 356702) at a density of 15,000 cells/well, and incubated at 37° C., 5% CO2 overnight. […] RPMI medium 1640-GlutaMAX™—I was added to the intermediate plate and the contents of the intermediate plate were then transferred to the 384-well collagen coated cell culture plate, which was incubated at 37° C., 5% CO2 for 2 hours. After removal of medium from the collagen coated cell culture plate, cells were lysed in lysis buffer from Alpha SureFire® Ultra™ Multiplex p-ERK and total ERK assay kit (PerkinElmer MPSU-PTERK) containing Halt™ Protease and Phosphatase inhibitor cocktail (ThermoFisher Scientific 78446) at room temperature with constant shaking at 300 rpm for 30 minutes. The cell lysates were then transferred to an OptiPlate-384 plate (PerkinElmer 6005620), and the phosphorylation of ERK (p-ERK) and total ERK levels were detected by Alpha SureFire® Ultra™ Multiplex p-ERK kit and total ERK assay kit (PerkinElmer MPSU-PTERK) following the manufacturer's protocol. Assay plates were read on a EnVision Multimode Plate Reader (PerkinElmer), and the ratio of p-ERK vs. total ERK in each well was used as the final readout. Dose response curves were analyzed using a 4-parameter logistic model to calculate IC50 values using Spotfire software.
Test [2] has as its target Recombinant KRAS-G12D (SEQ ID NO: 2) (Homo sapiens, UniProt P01116, G12D). In words: SOS-catalyzed guanine nucleotide exchange (GNE) assay, KRAS-G12D.
Protocol: (§1) Specifically, the SOS-catalyzed nucleotide exchange assay utilizes a preformed time-resolved fluorescence resonance energy transfer (TR-FRET) complex containing a specific biotinylated RAS protein (KRAS-G12C/V/D, HRAS, NRAS; described above) with BODIPY-GDP, and Terbium-streptavidin. Test compounds are preincubated with this complex for 60 minutes.
(§2) To assemble the preformed TR-FRET complexes, each biotinylated RAS protein is diluted to 2 μM in an EDTA Buffer (20 mM HEPES, 50 mM sodium chloride, 10 mM EDTA, and 0.01% Tween) and incubated at room temperature for one hour. This mixture is then further diluted to 90 nM in an Assay Buffer (20 mM HEPES, 150 mM sodium chloride, 10 mM magnesium chloride, and 0.005% Tween) containing 15 nM of Terbium-Streptavidin (Invitrogen, catalog #PV3577) and 900 nM of BODIPY-GDP (Invitrogen, catalog #G22360) and incubated at room temperature for six hours. It should be noted that this preformed TR-FRET complex for each of the RAS proteins was made ahead of time, aliquoted and stored at −80° C. until the day of the experiment.
(§3) Once titrations are made, 10 nL of the diluted compounds is acoustically dispensed into a 384-well assay plate (Corning, catalog #3820) using an Echo 550 (Labcyte). Each well of the assay plate subsequently receives 3 μL of a specific 3× RAS preformed TR-FRET complex and 3 μL of Assay Buffer and is incubated at room temperature for 60 minutes (preincubation time). […] The final reaction in each well of 9 μL consists of 3 mM GTP, and the specific RAS and SOS proteins in the following concentrations: KRAS-G12C/SOS=3 nM/40 nM, KRAS-G12D/SOS=1 nM/40 nM, KRAS-G12V/SOS=1.25 nM/160 nM, HRAS/SOS=1.25 nM/40 nM, and NRAS/SOS=1.25 nM/40 nM.
(§4) The TR-FRET signal is measured on an Envision (PerkinElmer) plate reader: Excitation filter=340 nm; emission 1=495 nm; emission 2=520 nm; dichroic mirror=D400/D505; delay time=100 ms. The signal of each well is determined as the ratio of the emission at 520 nm to that at 495 nm. […] The apparent effect as a function of compound concentration is fit to a four-parameter logistic equation to calculate IC50 values using Spotfire software.
The target in test [3] is Recombinant KRAS-G12V (SEQ ID NO: 3) (Homo sapiens, UniProt P01116, G12V). In words: SOS-catalyzed guanine nucleotide exchange (GNE) assay, KRAS-G12V.
Recombinant KRAS-G12V (SEQ ID NO: 3), sequence (P01116 with tags, fused parts or gaps isoform P01116-2 G12V): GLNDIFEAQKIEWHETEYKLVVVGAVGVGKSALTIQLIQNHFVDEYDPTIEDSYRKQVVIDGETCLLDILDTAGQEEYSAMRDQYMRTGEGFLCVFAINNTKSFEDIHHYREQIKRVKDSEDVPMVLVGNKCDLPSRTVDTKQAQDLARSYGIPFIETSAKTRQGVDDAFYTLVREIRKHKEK
Protocol: as §1, §2, §3, §4
The target of another test is G13D (Homo sapiens, UniProt P01116, G13D). In words: Guanine nucleotide exchange (GNE) assay, G13D. The test is classed as biochemical.
G13D, sequence (P01116 1-188 isoform P01116-2 G13D): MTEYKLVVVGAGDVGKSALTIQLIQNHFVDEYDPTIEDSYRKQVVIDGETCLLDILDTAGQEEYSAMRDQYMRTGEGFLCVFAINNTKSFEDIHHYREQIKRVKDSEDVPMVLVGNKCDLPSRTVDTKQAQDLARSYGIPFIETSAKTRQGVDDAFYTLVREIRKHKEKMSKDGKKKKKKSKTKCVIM
The test system of test [4] is NCI-H358 cells containing homozygous KRAS-G12C activating mutation (p-ERK). To be noted: Homo sapiens, NCI-H358, 2 h, read-out: G12C H358 IC50 (nM).
Protocol: Procedure for Cellular Phospho-ERK Assay, G12C
NCI-H358 cells (ATCC® CRL-5807™), containing homozygous KRAS-G12C activating mutation, were cultured in T150 flask in growth medium (RPMI medium 1640-GlutaMAX™—I (ThermoFisher Scientific 61870) containing 10% fetal bovine serum (ThermoFisher Scientific 10091148)). The cells were harvested in growth medium after TrypLE (ThermoFisher scientific 12604021) digestion and were seeded in a 384-well collagen coated cell culture plate (Corning 356702) at a density of 15,000 cells/well, and incubated at 37° C., 5% CO2 overnight. […] RPMI medium 1640-GlutaMAX™—I was added to the intermediate plate and the contents of the intermediate plate were then transferred to the 384-well collagen coated cell culture plate, which was incubated at 37° C., 5% CO2 for 2 hours. After removal of medium from the collagen coated cell culture plate, cells were lysed in lysis buffer from Alpha SureFire® Ultra™ Multiplex p-ERK and total ERK assay kit (PerkinElmer MPSU-PTERK) containing Halt™ Protease and Phosphatase inhibitor cocktail (ThermoFisher Scientific 78446) at room temperature with constant shaking at 300 rpm for 30 minutes. The cell lysates were then transferred to an OptiPlate-384 plate (PerkinElmer 6005620), and the phosphorylation of ERK (p-ERK) and total ERK levels were detected by Alpha SureFire® Ultra™ Multiplex p-ERK kit and total ERK assay kit (PerkinElmer MPSU-PTERK) following the manufacturer's protocol. Assay plates were read on an EnVision Multimode Plate Reader (PerkinElmer), and the ratio of p-ERK vs. total ERK in each well was used as the final readout. Dose response curves were analyzed using a 4-parameter logistic model to calculate IC50 values using Spotfire software.

Where a name gives a salt, the structure may show the parent alone.

Recombinant KRAS-G12D (SEQ ID NO: 2), sequence (P01116 with tags, fused parts or gaps isoform P01116-2 G12D): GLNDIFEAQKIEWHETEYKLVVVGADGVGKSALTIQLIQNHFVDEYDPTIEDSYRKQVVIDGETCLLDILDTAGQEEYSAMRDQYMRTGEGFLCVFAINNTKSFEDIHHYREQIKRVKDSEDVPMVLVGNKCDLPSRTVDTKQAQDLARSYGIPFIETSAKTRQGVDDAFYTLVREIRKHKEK
Protocol for G13D: as §4

For `C#Cc1cccc2cccc(-c3c(F)cc4c(N5CCC[C@](C)(O)C5)nc(OC[C@@]56CCCN5C[C@H](F)C6)nc4c3F)c12` (single isomer, unassigned) [Ex-46], the IC50 (as a rule, the concentration needed to halve the response being measured) in test [1] turned out to be 4690 nM; in test [2], 986 nM; in test [3], 168 nM; against G13D it was 291 nM.
On to `Oc1cc(-c2c(F)cc3c(N4CCC[C@@H](O)C4)nc(OC[C@@]45CCCN4C[C@H](F)C5)nc3c2F)c2c(Cl)cccc2c1` [Ex-27, (3R)-1-(7-(8-chloro-3-hydroxynaphthalen-1-yl)-6,8-difluoro-2-(((2R,7aS)-2-fluorotetrahydro-1H-pyrrolizin-7a(5H)-yl)methoxy)quinazolin-4-yl)piperidin-3-ol], for which, in test [1], the concentration for half-maximal inhibition (IC50) was 3840 nM.
For the compound `C[C@@]1(O)COCCN(c2nc(OC[C@@]34CCCN3C[C@H](F)C4)nc3c(F)c(-c4cc(O)cc5cccc(Cl)c45)c(F)cc23)C1` [Ex-37, (6S)-4-(7-(8-chloro-3-hydroxynaphthalen-1-yl)-6,8-difluoro-2-(((2R,7aS)-2-fluorotetrahydro-1H-pyrrolizin-7a(5H)-yl)methoxy)quinazolin-4-yl)-6-methyl-1,4-oxazepan-6-ol], the values for the IC50 in test [1] and in test [4] were 151 nM and 48 nM, respectively.
Consider `CN(C)C[C@@]1(COc2nc(N3CCC[C@@](C)(O)C3)c3cc(F)c(-c4cccc5ccc(F)c(Cl)c45)c(F)c3n2)CC1(F)F` [Ex-14, (3R)-1-(7-(8-chloro-7-fluoronaphthalen-1-yl)-2-(((R)-1-((dimethylamino)methyl)-2,2-difluorocyclopropyl)methoxy)-6,8-difluoroquinazolin-4-yl)-3-methylpiperidin-3-ol], for which the 50% inhibitory concentration (IC50) is 1190 nM in test [2], 1230 nM in test [3] and 5190 nM against G13D.
On to `C#Cc1cccc2cc(O)cc(-c3ccc4c(N5CCC[C@@](C)(O)C5)nc(OCC5(CN(C)C)CC5)nc4c3F)c12` [Ex-16, (R)-1-(2-((1-((dimethylamino)methyl)cyclopropyl)methoxy)-7-(8-ethynyl-3-hydroxynaphthalen-1-yl)-8-fluoroquinazolin-4-yl)-3-methylpiperidin-3-ol], for which the IC50 in test [1] came to 352 nM; in test [4] it was 123 nM.
Take `C[C@@]1(O)CCCN(c2nc(OCC3(CN4CCC(F)CC4)CC3)nc3c(F)c(-c4cc(O)cc5cccc(Cl)c45)c(F)cc23)C1` [Ex-6, (3R)-1-(7-(8-chloro-3-hydroxynaphthalen-1-yl)-6,8-difluoro-2-((1-((4-fluoropiperidin-1-yl)methyl)cyclopropyl)methoxy)quin-azolin-4-yl)-3-methylpiperidin-3-ol]: in test [1], the 50% inhibitory concentration (IC50) is 3050 nM.
Take `C#Cc1cccc2cc(O)cc(-c3c(F)cc4c(N5CCC[C@@](C)(O)C5)nc(OCC5(CN6CC[C@@H](F)C6)CC5)nc4c3F)c12` [Ex-12, (3R)-1-(7-(8-ethyny1-3-hydroxynaphthalen-1-yl)-6,8-difluoro-2-((1-(((R)-3-fluoropyrrolidin-1-yl)methyl)cyclopropyl)meth-oxy)quinazolin-4-yl)-3-methylpiperidin-3-ol]: the IC50 is 86 nM in test [1] and 41 nM in test [4].
In the same order, the values of `CN1CCC[C@H]1COc1nc(N2CCC[C@@](C)(O)C2)c2cc(F)c(-c3cc(O)cc4cccc(Cl)c34)c(F)c2n1` [Ex-49, (3R)-1-(7-(8-chloro-3-hydroxynaphthalen-1-yl)-6,8-difluoro-2-(((S)-1-methylpyrrolidin-2-yl)methoxy)quinazolin-4-yl)-3-methylpiperidin-3-ol trifluoracetate salt] are 690 nM and 427 nM.
On to `Oc1cc(-c2c(F)cc3c(N4CCC[C@H](O)CC4)nc(OC[C@@]45CCCN4C[C@H](F)C5)nc3c2F)c2c(Cl)cccc2c1` [Ex-35, (4S)-1-(7-(8-chloro-3-hydroxynaphthalen-1-yl)-6,8-difluoro-2-(((2R,7aS)-2-fluorotetrahydro-1H-pyrrolizin-7a(5H)-yl)methoxy)quinazolin-4-yl)azepan-4-ol], for which the figures for the concentration for half-maximal inhibition (IC50) in test [1] and in test [4] were 4840 nM and 1820 nM, respectively.
In the same order, the values of `C[C@@]1(O)CCCN(c2nc(OC[C@]3(CO)CC3(F)F)nc3c(F)c(-c4cc(O)cc5cccc(Cl)c45)c(F)cc23)C1` [Ex-30, (3R)-1-(7-(8-chloro-3-hydroxynaphthalen-1-yl)-2-(((R)-2,2-difluoro-1-(hydroxymethyl)cyclo-propyl)methoxy)-6,8-difluoroquinazolin-4-yl)-3-methylpiperidin-3-ol] are 3150 nM and 512 nM.
`C#Cc1cccc2cc(O)cc(-c3c(F)cc4c(N5CCC[C@@](C)(O)C5)nc(OC[C@]5(CO)CC5(F)F)nc4c3F)c12` [Ex-44, (3R)-1-(2-(((R)-2,2-difluoro-1-(hydroxy-methyl)cyclopropyl)methoxy)-7-(8-ethynyl-3-hydroxynaphthalen-1-yl)-6,8-difluoroquinazolin-4-yl)-3-methylpiperidin-3-ol]: the half-maximal inhibitory concentration (IC50) in test [1] amounted to 142 nM; in test [4] it was 59 nM.
For `C#Cc1cccc2cc(O)cc(-c3cnc4c(N5CCC[C@@](C)(O)C5)nc(OCC5(CN(C)C)CC5)nc4c3)c12` [Ex-19, (R)-1-(2-((1-((dimethylamino)methyl)cyclopropyl)methoxy)-7-(8-ethynyl-3-hydroxynaphthalen-1-yl)pyrido[3,2-d]pyrimidine-4-yl)-3-methylpiperidin-3-ol], the IC50 in test [1] was 3340 nM; in test [2], 91 nM; in test [3] it was 47 nM; against G13D it was 129 nM.
`COC1CCN(CC2(COc3nc(N4CCC[C@@](C)(O)C4)c4cc(F)c(-c5cc(O)cc6cccc(Cl)c56)c(F)c4n3)CC2)CC1` [Ex-5, (3R)-1-(7-(8-chloro-3-hydroxnagphthalen-1-yl)-6,8-difluoro-2-((1-((4-methoxypiperidin-1-yl)methyl)cyclopropyl)methoxy)quinazolin-4-yl)-3-methylpiperidin-3-ol]: the half-maximal inhibitory concentration (IC50) in test [1] stood at 1150 nM.
The same measure, in the same setting: under `C#Cc1cccc2cc(O)cc(-c3c(F)cc4c(N5CCC[C@@](C)(O)C5)nc(OCC5(CN6CCC(OC)CC6)CC5)nc4c3F)c12` [Ex-7, (3R)-1-(7-(8-ethynyl-3-hydroxvnaphthalen-1-yl)-6,8-difluoro-2-((1-((4-methoxypiperidin-1-yl)methyl)cyclopropyl)methoxy)quinazolin-4-yl)-3-methylpiperidin-3-ol] stands 95 nM.
Consider `C[C@@H]1C[C@@H](O)CN1c1nc(OC[C@@]23CCCN2C[C@H](F)C3)nc2c(F)c(-c3cc(O)cc4cccc(Cl)c34)c(F)cc12` [Ex-28, (3R,5R)-1-(7-(8-chloro-3-hydroxynaphthalen-1-yl)-6,8-difluoro-2-(((2R,7aS)-2-fluorotetrahydro-1H-pyrrolizin-7a(5H)-yl)methoxy)quinazolin-4-yl)-5-methylpyrrolidin-3-ol], for which the results for the IC50 in test [1] and in test [4] were 1220 nM and 2260 nM, respectively.
On to `CN(C)CC1(COc2nc(N3CCC[C@@](C)(O)C3)c3cnc(-c4cc(O)cc5cccc(Cl)c45)c(F)c3n2)CC1` [Ex-20, (R)-1-(7-(8-chloro-3-hydroxynaphthalen-1-yl)-2-((1-((dimethylamino)methyl)cyclopropyl)methoxy)-8-fluoropyrido[4,3-d]pyrimidin-4-yl)-3-methylpiperidin-3-ol], for which the IC50 in test [1] is 1180 nM; in test [2], 4 nM; in test [3], 6 nM; at G13D, 6 nM.
In the case of `Nc1nc2c(-c3c(Cl)cc4c(N5CCCC(O)CC5)nc(OC[C@@]56CCCN5C[C@H](F)C6)nc4c3F)c(F)cc(F)c2o1` (stereo partly drawn) [Ex-25, 1-(7-(2-amino-5,7-difluorobenzo[d]oxazol-4-yl)-6-chloro-8-fluoro-2-(((2R,7aS)-2-fluorotetrahydro-1H-pyrrolizin-7a(5H)-yl)methoxy)quinazolin-4-yl)azepan-4-ol], the IC50 was 1400 nM in test [1] and 611 nM in test [4].
As for `Cc1cc2[nH]ncc2c(-c2c(F)cc3c(N4CCC[C@@](C)(O)C4)nc(OCC4(CN5CC[C@@H](F)C5)CC4)nc3c2F)c1C` [Ex-39, (3R)-1-(7-(5,6-dimethy1-1H-indazol-4-yl)-6,8-difluoro-2-((1-(((R)-3-fluoropyrrolidin-1-yl)methyl)cyclopropyl)methoxy)quinazolin-4-yl)-3-methylpiperidin-3-ol], the concentration for half-maximal inhibition (IC50) in test [2] came to 2710 nM; in test [3], 2290 nM; on G13D, 2660 nM.
For the compound `C#Cc1cccc2cc(O)cc(-c3ncc4c(N5CCC[C@@](C)(O)C5)nc(OCC5(CN(C)C)CC5)nc4c3F)c12` [Ex-21, (R)-1-(2-((1-((dimethylamino)methyl)cyclopropyl)methoxy)-7-(8-ethynyl-3-hydroxynaphthalen-1-yl)-8-fluoropyrido[4,3-d]pyrimidin-4-yl)-3-methylpiperidin-3-ol], the 50% inhibitory concentration (IC50) in test [1] is 329 nM; in test [2] it was 1 nM; in test [3], 1 nM; against G13D, 1 nM.
Take `CC1CN(c2nc(OC[C@@]34CCCN3C[C@H](F)C4)nc3c(F)c(-c4cc(O)cc5cccc(Cl)c45)c(F)cc23)CC(C)(O)C1` (single isomer, unassigned) [Ex-33]: the IC50 in test [2] was 163 nM; in test [3], 143 nM; against G13D it was 86 nM.
With `C#Cc1cccc2cc(O)cc(-c3c(F)cc4c(N5CCC[C@@](C)(O)C5)nc(OCC5(CN(C)C)CC5)nc4c3F)c12` (single isomer, unassigned) [Ex-11], the IC50 amounted to 132 nM in test [1], 1 nM in test [2], 2 nM in test [3] and 2 nM against G13D.

These data come from patent publication US20260200925A1, “SMALL MOLECULE INHIBITORS OF KRAS MUTATED PROTEINS” (MERCK SHARP & DOHME LLC, priority 2021, published 2026).
